# In patent publication US20060204460A1, “Lip gloss composition” (KOKYU ALCOHOL KOGYO CO., LTD., priority 2005, published 2006):
# Assay: Viscosity of liquid oil (E) on a Brookfield viscometer
# Assay type: physicochemical
# Settings: at 25 degrees C., No. 2 spindle, 12 rpm
# Procedure: The liquid oil having a viscosity of from 5 to 400 mPa·s at 25 degrees C., (E), is known and commonly used in cosmetics. The viscosity of the liquid oil at 25 degrees C. is preferably 8 to 350 mPa·s, and more preferably 12 to 300 mPa·s. […] The viscosity is measured on a Brookfield viscometer using No. 2 spindle at 12 rpm.
row,Viscosity [mPa·s],Molecule
1,34,hexyldecyl isostearate
2,40,CC(C)CCCCCCCCCCCCCCCOC(=O)CCCCCCCCCCCCCCC(C)C [isostearyl isostearate]
3,35,CCCCC(CC)C(=O)OCC(COC(=O)C(CC)CCCC)OC(=O)C(CC)CCCC (stereo not drawn) [triethyl hexanoin]
4,310,diisopropyl dilinoleate
5,185,triisostearine
6,64,ethylhexyl hydroxystearate
7,15,CC(C)CCCCCCCCCCCCCCCOC(=O)C(C)(C)C [isostearyl neopentanoate]
8,110,CCCCC(CC)C(=O)OCC(COC(=O)C(CC)CCCC)(COC(=O)C(CC)CCCC)COC(=O)C(CC)CCCC (stereo not drawn) [pentaerythrityl tetraethylhexanoate]
9,25,octyldodecyl neodecanoate
10,19,CCCCCCCCCC(=O)OCC(C)(C)COC(=O)CCCCCCCCC [neopentylglycol dicaprate]
11,5,isononyl ethylhexanoate
12,13,CCCCC(CC)C(=O)OCC(C)(C)COC(=O)C(CC)CCCC (stereo not drawn) [neopentylglycol diethylhexanoate]
13,90,octyldodecyl stearoyloxystearate
14,7,CCCCCCCCCCCCCCCC(=O)OC(C)C [isopropyl palmitate]
15,12,CC(C)CCCCCCCCCCOC(=O)CCCCCC(C)C [isotridecyl isononanoate]
16,10,CC(C)CCCCCCCCCCCCCCC(=O)OC(C)C [isopropyl isostearate]
17,6,CC(C)CCCCCCOC(=O)CCCCCC(C)C [isononyl isononanoate]
18,15,octyldodecyl neopentanoate
19,290,pentaerythrityl tetraisostearate
20,32,CC(C)CCCC(C)CCCC(C)CCCCC(C)CCCC(C)CCCC(C)C (stereo not drawn) [squalane]
21,11,hexyldecyl ethylhexanoate
22,13,CCCCCCCCCCCCCCCCOC(=O)C(CC)CCCC (stereo not drawn) [cetyl ethylhexanoate]

row,Molecule,Viscosity [mPa·s]
1,trimethylolpropane triethylhexanoate,52
2,trimethylolpropane triisostearate,180
